The test concerns EGF-induced AA release in HaCaT keratinocytes. Description: [3H]-Arachidonic acid release assay in EGF-stimulated HaCaT keratinocytes. The test is classed as cell-based, human. The note with it: EGF 100 ng/ml 1 h, dose-dependent, FIG. 2. Here is the method: The spontaneously immortalized skin keratinocyte cell line HaCaT (kindly provided by Prof. N. Fusenig, Heidelberg, Deutsches Krebsforschungszentrum, Germany) was cultured in DMEM supplemented with 10% (v/v) FBS, 0.3 mg/ml glutamine, and 0.1 mg/ml gentamicin at 37° C. with 5% CO2 in a humidified atmosphere. For release assays, flow cytometry cell cycle analysis and in vitro cPLA2α activity assay, cells were grown in 48 well trays or in 6 well trays, respectively. Cells were cultivated until 2 days post-confluency; serum starved in DMEM/0.5% FBS overnight and processed at day 3 post-confluence to ensure differentiation. Experiments were performed in DMEM/0.5% FBS. Untreated cells without inducing agents were included for unstimulated control. […] Cells were lysed and 200 μg of total protein was analyzed for cPLA2α activity as described. […] Following washing three times with Tris-buffered saline containing […], immunoreactive proteins were detected by horseradish peroxidase-conjugated secondary antibody (1 hour at room temperature) and SuperSignal® West Femto Maximum Sensivity substrate. Blots were analyzed by the BioRad Image Lab software, and target protein band intensities were normalized to α-tubulin. […] After labelling, the cells were washed twice with phosphate-buffered saline (PBS) containing fatty acid free BSA (2 mg/ml) (fBSA) in order to remove unincorporated radioactivity. […]

Entries after “also recorded” stand apart in the source; their conditions may differ.

Take `CC/C=C\C/C=C\C/C=C\C/C=C\C/C=C\CCSCC(=O)C(F)(F)F` [AVX002]: the “effect on EGF-induced AA-release” value was “completely abrogated; also recorded: reduced AA-release to below basal release in a dose-dependent manner”.

(Values after patent publication US10085953B2, “Skin cancer treatment” (Avexxin AS, priority 2014, dated 2018).)
